Each structure is given as a SMILES string.

In this assay the target is T1, KRAS G12C 1-169, his-tagged protein, GDP-loaded (Homo sapiens, UniProt P01116, G12C).
T1 construct: KRAS G12C 1-169, his-tagged protein, GDP-loaded
Description: Biochemical assay: covalent modification of KRAS G12C measured by mass spectrometry (RapidFire/TOF or Q-Exactive). The conditions noted are these: covalent binding to KRAS G12C; compounds of structure (I). The essentials:
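GDP-loaded his-tagged KRAS G12C 1-169 at 2 μM in 20 mM Hepes, 150 mM NaCl, 1 mM MgCl2 incubated at room temperature with compound (10, 30 or 100 μM final, 2% DMSO) for 30 min, 2 h or 24 h, then quenched with formic acid. Intact-protein LC-MS (RapidFire/TOF or Q-Exactive) with deconvolution quantified modified versus unmodified protein.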
Turning to `C=CC(=O)N1CCN(c2nc(OCCN3CCC(F)(F)C3)nc3c(F)c(-c4c(O)cccc4F)c(Cl)cc23)CC1` [Example I-30, 1-(4-(6-chloro-2-(2-(3,3-difluoro-pyrrolidin-1-yl)ethoxy)-8-fluoro-7-(2-fluoro-6-hydroxyphenyl)quinazolin-4-yl)piperazin-1-yl) prop-2-en-1-one], the Binding % result was “+++ (+++ indicates binding activity greater than 90%)”.

`C=CC(=O)N1CCN(c2nc(OCCN3CC[C@H](OC)C3)nc3c(F)c(-c4c(O)cccc4F)c(Cl)cc23)CC1` [Example I-33, 1-(4-(6-chloro-8-fluoro-7-(2-fluoro-6-hydroxyphenyl)-2-(2-((S)-3-methoxy-pyrrolidin-1-yl)ethoxy)quinazolin-4-yl)piperazin-1-yl)prop-2-en-1-one]: the Binding % entry is reported as “+++ (+++ indicates binding activity greater than 90%)”.

`C=CC(=O)N1CCN(c2nc(CCN(C)C)nc3c(F)c(-c4c(C)ccc5[nH]ncc45)c(Cl)cc23)CC1` [Example I-34, 1-(4-(6-chloro-2-(2-(dimethyl-amino)ethyl)-8-fluoro-7-(5-methyl-1H-indazol-4-yl)quinazolin-4-yl)piperazin-1-yl)prop-2-en-1-one]: the Binding % result was “+++ (+++ indicates binding activity greater than 90%)”.

`C=CC(=O)N1CCN(c2nc(OCC3CCN(CC(F)(F)F)CC3)nc3c(F)c(-c4c(O)cccc4F)c(Cl)cc23)CC1` [Example I-35, 1-(4-(6-chloro-8-fluoro-7-(2-fluoro-6-hydroxyphenyl)-2-((1-(2,2,2-trifluoroethyl)piperidin-4-yl)methoxy)quinazolin-4-yl)piperazin-1-yl)prop-2-en-1-one]: the Binding % result was “++ (++ indicates binding activity from 50 to 90%)”.

As for `C=CC(=O)N1CCN(c2nc(OCCN3CC(F)(F)C3)nc3c(F)c(-c4c(O)cccc4F)c(Cl)cc23)CC1` [Example I-36, 1-(4-(6-chloro-2-(2-(3,3-difluoroazetidin-1-yl)ethoxy)-8-fluoro-7-(2-fluoro-6-hydroxyphenyl)quinazolin-4-yl)piperazin-1-yl) prop-2-en-1-one], the Binding % entry is “+++ (+++ indicates binding activity greater than 90%)”.

`C=CC(=O)N1CCN(c2nc(OCCN3CCOCC3)nc3c(F)c(-c4ccccc4C(C)C)c(Cl)cc23)CC1` [Example I-37, 1-(4-(6-chloro-8-fluoro-7-(2-isopropylphenyl)-2-(2-morpholino-ethoxy)quinazolin-4-yl)piperazin-1-yl)prop-2-en-1-one]: the Binding % entry is reported as “+++ (+++ indicates binding activity greater than 90%)”.

With `C=CC(=O)N1CCN(c2nc(OCCN3CCC(F)(F)CC3)nc3c(F)c(-c4c(O)cccc4F)c(Cl)cc23)CC1` [Example I-38, 1-(4-(6-chloro-2-(2-(4,4-difluoro-piperidin-1-yl)ethoxy)-8-fluoro-7-(2-fluoro-6-hydroxyphenyl)quinazolin-4-yl)piperazin-1-yl) prop-2-en-1-one], the Binding % result is listed as “+++ (+++ indicates binding activity greater than 90%)”.

Consider `C=CC(=O)N1CCN(c2nc(OCCN3CCOCC3)nc3c(F)c(-c4c(F)cccc4OC)c(Cl)cc23)CC1` [Example I-39, 1-(4-(6-chloro-8-fluoro-7-(2-fluoro-6-methoxyphenyl)-2-(2-morpholino-ethoxy)quinazolin-4-yl)piperazin-1-yl)prop-2-en-1-one], for which the Binding % entry is “+++ (+++ indicates binding activity greater than 90%)”.

With `C=CC(=O)N1CCN(c2nc(OCCN(CC)CC)nc3c(F)c(-c4c(O)cccc4F)c(Cl)cc23)CC1` [Example I-40, 1-(4-(6-chloro-2-(2-(diethyl-amino)ethoxy)-8-fluoro-7-(2-fluoro-6-hydroxyphenyl)quinazolin-4-yl)piperazin-1-yl) prop-2-en-1-one], the Binding % entry was “+++ (+++ indicates binding activity greater than 90%)”.

Regarding `C=CC(=O)N1CCN(c2nc(N3CC(N4CCN(C)CC4)C3)nc3c(F)c(-c4c(O)cccc4F)c(Cl)cc23)CC1` [Example I-41, 1-(4-(6-chloro-8-fluoro-7-(2-fluoro-6-hydroxyphenyl)-2-(3-(4-methyl-piperazin-1-yl)azetidin-1-yl)quinazolin-4-yl)piperazin-1-yl)prop-2-en-1-one], the Binding % entry is on record as “+++ (+++ indicates binding activity greater than 90%)”.

In the case of `C=CC(=O)N1CCN(c2nc(OCCN3CCN(C(C)C)CC3)nc3c(F)c(-c4c(O)cccc4F)c(Cl)cc23)CC1` [Example I-42, 1-(4-(6-chloro-8-fluoro-7-(2-fluoro-6-hydroxyphenyl)-2-(2-(4-isopropyl-piperazin-1-yl)ethoxy)quinazolin-4-yl)piperazin-1-yl)prop-2-en-1-one], the Binding % result is on record as “+++ (+++ indicates binding activity greater than 90%)”.

For `C=CC(=O)N1CCN(c2nc(OCCN3CCC3)nc3c(F)c(-c4c(O)cccc4F)c(Cl)cc23)CC1` [Example I-43, 1-(4-(2-(2-(azetidin-1-yl)ethoxy)-6-chloro-8-fluoro-7-(2-fluoro-6-hydroxyphenyl)quinazolin-4-yl)piperazin-1-yl) prop-2-en-1-one], the Binding % entry is reported as “+++ (+++ indicates binding activity greater than 90%)”.

Take `C=CC(=O)N1CCN(c2nc(OCCc3ccccn3)nc3c(F)c(-c4cc(O)cc5ccccc45)c(Cl)cc23)CC1` [Example I-44, 1-(4-(6-chloro-8-fluoro-7-(3-hydroxy-naphthalen-1-yl)-2-(2-(pyridin-2-yl)ethoxy)quinazolin-4-yl)piperazin-1-yl) prop-2-en-1-one]: the Binding % result is “+++ (+++ indicates binding activity greater than 90%)”.

On to `C=CC(=O)N1CCN(c2nc(OCCc3ccccn3)nc3c(F)c(-c4c(O)cccc4F)c(Cl)cc23)CC1` [Example I-45, 1-(4-(6-chloro-8-fluoro-7-(2-fluoro-6-hydroxyphenyl)-2-(2-(pyridin-2-yl)ethoxy)quinazolin-4-yl)piperazin-1-yl)prop-2-en-1-one], for which the Binding % result is reported as “+++ (+++ indicates binding activity greater than 90%)”.

Turning to `C=CC(=O)N1CCN(c2nc(N3CCOCC3)nc3c(F)c(-c4cc(O)cc5ccccc45)c(Cl)cc23)CC1` [Example I-46, 1-(4-(6-chloro-8-fluoro-7-(3-hydroxy-naphthalen-1-yl)-2-morpholino-quinazolin-4-yl)piperazin-1-yl)prop-2-en-1-one], the Binding % entry is listed as “+++ (+++ indicates binding activity greater than 90%)”.

For `C=CC(=O)N1CCN(c2nc(N3CCOCC3)nc3c(F)c(-c4c(O)cccc4F)c(Cl)cc23)CC1` [Example I-47, 1-(4-(6-chloro-8-fluoro-7-(2-fluoro-6-hydroxyphenyl)-2-morpholino-quinazolin-4-yl)piperazin-1-yl)prop-2-en-1-one], the Binding % entry was “+++ (+++ indicates binding activity greater than 90%)”.

Turning to `C=CC(=O)N1CCN(c2nc(OCCN3CCOCC3)nc3c(F)c(-c4ccccc4C(F)(F)F)c(Cl)cc23)CC1` [Example I-48, 1-(4-(6-chloro-8-fluoro-2-(2-morpholino-ethoxy)-7-(2-(trifluoromethyl)phenyl)quinazolin-4-yl)piperazin-1-yl)prop-2-en-1-one], the Binding % result was “+++ (+++ indicates binding activity greater than 90%)”.

As for `C=CC(=O)N1CCN(c2nc(C(=O)N3CCOCC3)nc3c(F)c(-c4c(O)cccc4F)c(Cl)cc23)CC1` [Example I-49, 1-(4-(6-chloro-8-fluoro-7-(2-fluoro-6-hydroxyphenyl)-2-(morpholine-4-carbonyl)quinazolin-4-yl)piperazin-1-yl) prop-2-en-1-one], the Binding % result is recorded as “+++ (+++ indicates binding activity greater than 90%)”.

In the case of `C=C(F)C(=O)N1CCN(c2nc(OCCN3CCOCC3)nc3c(F)c(-c4cc(O)cc5ccccc45)c(Cl)cc23)CC1` [Example I-50, 1-(4-(6-chloro-8-fluoro-7-(3-hydroxy-naphthalen-1-yl)-2-(2-morpholino-ethoxy)quinazolin-4-yl)piperazin-1-yl)-2-fluoroprop-2-en-1-one], the Binding % result is “++ (++ indicates binding activity from 50 to 90%)”.

On to `C=CC(=O)N1CCN(c2nc(OCC(O)CN(C)C)nc3c(F)c(-c4c(C)ccc5[nH]ncc45)c(Cl)cc23)CC1` (stereo not drawn) [Example I-53, 1-(4-(6-chloro-2-(3-(dimethyl-amino)-2-hydroxy-propoxy)-8-fluoro-7-(5-methyl-1H-indazol-4-yl)quinazolin-4-yl)piperazin-1-yl)prop-2-en-1-one], for which the Binding % entry is on record as “+++ (+++ indicates binding activity greater than 90%)”.

Regarding `C=CC(=O)N1CCN(c2nc(OCCc3ccccn3)nc3c(F)c(-c4cc(OC)cc5ccccc45)c(Cl)cc23)CC1` [Example I-54, 1-(4-(6-chloro-8-fluoro-7-(3-methoxy-naphthalen-1-yl)-2-(2-(pyridin-2-yl)ethoxy)quinazolin-4-yl)piperazin-1-yl)prop-2-en-1-one], the Binding % result is listed as “+ (+ indicates binding activity up to 50%)”.

Take `C=CC(=O)N1CCN(c2nc(N3CC(N(C)C)C3)nc3c(F)c(-c4c(O)cccc4F)c(Cl)cc23)CC1` [Example I-55, 1-(4-(6-chloro-2-(3-(dimethyl-amino)azetidin-1-yl)-8-fluoro-7-(2-fluoro-6-hydroxyphenyl)quinazolin-4-yl)piperazin-1-yl) prop-2-en-1-one]: the Binding % entry is “+++ (+++ indicates binding activity greater than 90%)”.

With `C=CC(=O)N1CCN(c2nc(NCCN3CC[C@@H](O)C3)nc3c(F)c(-c4c(O)cccc4F)c(Cl)cc23)CC1` [Example I-56, 1-(4-(6-chloro-8-fluoro-7-(2-fluoro-6-hydroxyphenyl)-2-(2-((R)-3-hydroxy-pyrrolidin-1-yl)ethylamino)quinazolin-4-yl)piperazin-1-yl) prop-2-en-1-one], the Binding % result was “+++ (+++ indicates binding activity greater than 90%)”.

For `C=CC(=O)N1CCN(c2nc(OCCN3CCOCC3=O)nc3c(F)c(-c4cc(O)cc5ccccc45)c(Cl)cc23)CC1` [Example I-57, 4-(2-(4-(4-acryloyl-piperazin-1-yl)-6-chloro-8-fluoro-7-(3-hydroxy-naphthalen-1-yl)quinazolin-2-yloxy)ethyl) morpholin-3-one], the Binding % entry is recorded as “+++ (+++ indicates binding activity greater than 90%)”.

(Values after patent US10829458B2 (Araxes Pharma LLC, priority 2015, dated 2020).)
